{"source": "patent US20050090551A1", "about": "“Therapeutic use of methionine for the treatment or prevention of mucositis” (Board of Trustees of Southern Illinois University, priority 2003, published 2005)", "key": {"[1]": {"system": "NHIK 3025 in vitro human uterine cervix carcinoma in situ cancer cells", "settings": "preadministration of methionine, presumably a racemic mixture; cited from earlier work"}, "[2]": {"system": "CDDP nephrotoxicity", "settings": "literature reports; cited from earlier work"}, "[3]": {"system": "CDDP anti-tumor action", "settings": "literature reports; cited from earlier work"}, "[4]": {"system": "CDDP-induced weight loss", "settings": "literature reports; cited from earlier work"}, "[5]": {"system": "male Wistar rats", "test": "Auditory Brainstem Testing (ABR) thresholds in CDDP-treated rats", "assay_type": "in vivo, rat"}, "[6]": {"system": "male Wistar rats", "settings": "75, 150 or 300 mg/kg D-methionine prior to 16 mg/kg CDDP"}, "[7]": {"system": "male Wistar rats"}, "[8]": {"system": "male Wistar rats", "remark": "listed apart in the source"}, "[9]": {"system": "Human salivary gland epithelial cells", "settings": "various concentrations of D-methionine (1.0-0.1 mg/ml) six hours prior to 10 Gy; after 24 Hrs", "description": "One set was untreated as a control and another was irradiated with 10 Gy the following morning."}, "[10]": {"system": "mice", "settings": "6 Gy/day for five days", "protocol": "The experiment was conducted using a mouse model of radiation-induced lip erythema. Four groups of mice (n=5) were used. The first group (Group A) was an untreated, control group. The second group (Group B) was irradiated with ionizing radiation (6 Gy/day) for 5 days."}, "[11]": {"system": "tumor bearing animals", "settings": "pre or post treatment, 150 mg/Kg x5, i.p."}, "[12]": {"system": "Walker 256 carcinosarcoma in the rat", "settings": "Jones and Basinger; cited from earlier work"}, "[13]": {"system": "CDDP ototoxicity", "settings": "animals; literature reports; cited from earlier work"}, "[14]": {"system": "patients", "settings": "cited from earlier work"}, "[15]": {"system": "hamsters", "settings": "Church et al; cited from earlier work"}}, "note": "Structures can show the parent of a compound that is named as a salt."}
{"smiles": "CSCC[C@H](N)C(=O)O", "note": "(racemic) [methionine]", "values": [{"measurement": "effect on CDDP cytotoxicity", "setting": "[1]", "result": "sensitized"}]}
{"smiles": "CSc1ncccc1C(=O)O", "note": "[2-(methylthio)nicotinic acid]", "values": [{"measurement": "CDDP nephroprotection", "setting": "[2]", "result": "does not provide nephroprotection"}]}
{"smiles": "O=C(O)CCCC[C@@H]1SC[C@@H]2NC(=O)N[C@@H]21", "note": "[Biotin]", "values": [{"measurement": "CDDP nephroprotection", "setting": "[2]", "result": "good CDDP nephroprotection"}, {"measurement": "effect on CDDP anti-tumor action", "setting": "[3]", "result": "inhibits anti-tumor activity"}]}
{"smiles": "C[C@H](CS)C(=O)N1CCC[C@H]1C(=O)O", "note": "[Captropril]", "values": [{"measurement": "CDDP nephroprotection", "setting": "[2]", "result": "protects against CDDP nephrotoxicity"}]}
{"smiles": "CC1=C(C(=O)O)N2C(=O)[C@@H](NC(=O)[C@H](N)c3ccccc3)[C@H]2SC1", "note": "[Cephalexin]", "values": [{"measurement": "protection against CDDP-induced weight loss", "setting": "[4]", "result": "protects against CDDP-induced kidney dysfunction and weight loss"}]}
{"smiles": "CSCC[C@@H](N)C(=O)O", "note": "[D-methionine]", "values": [{"measurement": "animals with complete otoprotection (no significant ABR threshold shift for any stimulus)", "setting": "[5]; 75 mg/kg D-methionine i.p. 30 minutes prior to 16 mg/kg CDDP, 3 days later", "result": "2/5"}, {"measurement": "animals with complete otoprotection (no significant ABR threshold shift for any stimulus)", "setting": "[5]; 150 mg/kg D-methionine i.p. 30 minutes prior to 16 mg/kg CDDP, 3 days later", "result": "3/5"}, {"measurement": "animals with complete otoprotection for all stimulus conditions", "setting": "[5]; 300 mg/kg D-methionine i.p. 30 minutes prior to 16 mg/kg CDDP, group of 5, 3 days later", "result": 5}, {"measurement": "post-test ABR thresholds vs treated control group, all stimuli", "setting": "[5]; any level of D-methionine (75, 150, 300 mg/kg) prior to 16 mg/kg CDDP", "result": "significantly lower ABR thresholds than the treated control group"}, {"measurement": "outer hair cell findings, middle and basal turns", "setting": "[6]", "result": "only the treated control group showed significantly different findings from the untreated control group"}, {"measurement": "weight loss vs treated control group", "setting": "[7]; 300 mg/kg D-methionine prior to 16 mg/kg CDDP, 3 days", "result": "significantly less than that in the treated control group"}, {"measurement": "CDDP-induced weight loss, dose dependence", "setting": "[7]; 75, 150, 300 mg/kg D-methionine prior to 16 mg/kg CDDP", "result": "diminished as D-methionine dosing increased"}, {"measurement": "alopecia: coat and hair loss vs control group animals", "setting": "[8]; D-methionine prior to 16 mg/kg CDDP", "result": "significantly less hair loss"}, {"measurement": "animals surviving to the end of the study period", "setting": "[8]; any level of D-methionine prior to 16 mg/kg CDDP", "result": "15/15"}, {"measurement": "neuroprotection: activity and coordination vs surviving treated controls", "setting": "[8]; morning of the third day, D-methionine prior to 16 mg/kg CDDP", "result": "noticeably more lively, active, and coordinated"}, {"measurement": "apoptosis (cells having an apoptotic phenotype)", "setting": "[9]", "result": "about 20%"}, {"measurement": "lip erythema, post-treatment", "setting": "[10]; 150 mg/kg one hour after irradiation", "result": "prevented the occurrence of lip erythema"}, {"measurement": "lip erythema, pre-treatment", "setting": "[10]; 150 mg/kg six hours prior to irradiation", "result": "prevented the occurrence of lip erythema"}, {"measurement": "interference with antitumor activity of ionizing radiation", "setting": "[11]", "result": "did not interfere with antitumor activity of ionizing radiation"}, {"measurement": "CDDP nephroprotection", "setting": "[2]", "result": "highly effective CDDP nephroprotection"}, {"measurement": "effect on CDDP anti-tumor action", "setting": "[3]", "result": "without decreasing anti-tumor action"}, {"measurement": "effect on CDDP anti-tumor action", "setting": "[12]", "result": "does not inhibit CDDP anti-tumor action"}]}
{"smiles": "CCOC(=O)[C@@H](N)CS", "note": "[Ethyl-L-cysteinate]", "values": [{"measurement": "CDDP nephroprotection", "setting": "[2]", "result": "exacerbate CDDP nephrotoxicity"}]}
{"smiles": "CSCC[C@H](N)C(N)=O", "note": "[L-methioninamide]", "values": [{"measurement": "CDDP nephroprotection", "setting": "[2]", "result": "excellent CDDP nephroprotection"}, {"measurement": "effect on CDDP anti-tumor action", "setting": "[3]", "result": "impairs CDDP anti-tumor action"}]}
{"smiles": "CC(S)C(=O)NCC(=O)O", "note": "(stereo not drawn) [N-(2-mercapto-propionyl)glycine]", "values": [{"measurement": "CDDP nephroprotection", "setting": "[2]", "result": "exacerbate CDDP nephrotoxicity"}]}
{"smiles": "O=S([O-])([O-])=S.[Na+].[Na+]", "note": "[STS, sodium thiosulfate]", "values": [{"measurement": "CDDP nephroprotection", "setting": "[2]", "result": "reduces CDDP nephrotoxicity and ototoxicity"}, {"measurement": "effect on CDDP anti-tumor action", "setting": "[3]", "result": "reduces the latter's tumoricidal action"}, {"measurement": "CDDP otoprotection", "setting": "[13]", "result": "good CDDP otoprotection"}]}
{"smiles": "Nc1ccc(S(=O)(=O)Nc2nccs2)cc1", "note": "[Sulfathiazole]", "values": [{"measurement": "CDDP nephroprotection", "setting": "[2]", "result": "provides protection against CDDP nephrotoxicity"}, {"measurement": "protection against CDDP-induced weight loss", "setting": "[4]", "result": "not weight loss"}]}
{"smiles": "NCCCNCCSP(=O)(O)O", "note": "[WR2721]", "values": [{"measurement": "CDDP nephroprotection", "setting": "[2]", "result": "excellent CDDP nephroprotection"}, {"measurement": "patients with mild to severe hearing loss", "setting": "[14]; WR2721 prior to CDDP, Glover et al.", "result": "20 of 36"}, {"measurement": "incidence of significant hearing threshold shift", "setting": "[14]; patients pretreated with WR2721 prior to CDDP, Rubin et al.", "result": 45, "unit": "%"}, {"measurement": "protection from ototoxicity or mortality", "setting": "[15]", "result": "no WR2721 protection from ototoxicity or mortality"}]}
{"smiles": "CO[C@@]1(NC(=O)Cc2cccs2)C(=O)N2C(C(=O)O)=C(COC(N)=O)CS[C@@H]21", "note": "[cefoxitin]", "values": [{"measurement": "CDDP nephroprotection", "setting": "[2]", "result": "does not provide nephroprotection"}, {"measurement": "protection against CDDP-induced weight loss", "setting": "[4]", "result": "some protection against CDDP-induced weight loss"}]}
{"smiles": "CC1(C)S[C@@H]2[C@H](NC(=O)Cc3ccccc3)C(=O)N2[C@H]1C(=O)[O-].[Na+]", "note": "[sodium salt of penicillin G, penicillin G]", "values": [{"measurement": "CDDP nephroprotection", "setting": "[2]", "result": "does not protect against CDDP nephrotoxicity or weight loss"}, {"measurement": "protection against CDDP-induced weight loss", "setting": "[4]", "result": "does not protect against CDDP nephrotoxicity or weight loss"}]}
{"smiles": "Cc1ncc(C[n+]2csc(CCO)c2C)c(N)n1", "note": "[thiamine-HCl]", "values": [{"measurement": "CDDP nephroprotection", "setting": "[2]", "result": "does not protect against cisplatin nephrotoxicity or weight loss"}, {"measurement": "protection against CDDP-induced weight loss", "setting": "[4]", "result": "does not protect against cisplatin nephrotoxicity or weight loss"}]}
